The values below come from patent publication US9624170B2, “4-(piperrazin-1-yl)-pyrrolidin-2-one compounds as monoacylglycerol lipase (MAGL) inhibitors” (TAKEDA PHARMACEUTICAL COMPANY LIMITED, priority 2013, dated 2017).

The first experiment concerns the target T1, human MAGL (His-hMAGL) (Homo sapiens, UniProt Q99685).
T1 construct: made in house; host or cells: Escherichia coli BL21(DE3)
T1 sequence (Q99685 1-303): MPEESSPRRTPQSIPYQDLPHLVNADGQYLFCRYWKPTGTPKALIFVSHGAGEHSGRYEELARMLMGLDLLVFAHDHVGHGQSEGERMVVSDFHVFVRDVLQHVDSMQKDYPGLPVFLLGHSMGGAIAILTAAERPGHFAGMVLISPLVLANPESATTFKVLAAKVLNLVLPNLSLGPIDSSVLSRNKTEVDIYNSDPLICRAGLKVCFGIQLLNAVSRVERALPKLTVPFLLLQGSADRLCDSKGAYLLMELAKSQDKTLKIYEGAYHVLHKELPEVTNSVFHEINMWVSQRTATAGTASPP
The experiment can be described thus: Measurement of MAGL inhibitory activity by mass spectrometry. The note with it: 10 μM test compound; substrate 2-arachidonylglycerol, arachidonic acid by RapidFire-mass spectrometry. It counts as biochemical. The method, boiled down: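 His-tagged human MAGL was reacted with 150 μM 2-arachidonylglycerol substrate (stock, added by 5 μL) for 10 min at room temperature, then stopped with formic acid. Arachidonic acid product was quantified by RapidFire–triple-quadrupole MS in negative SRM mode, corrected by arachidonic acid-d8, and converted to percent inhibition.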
`O=C(c1nccs1)N1CCN(C2CC(=O)N(c3cccc(-c4ccccc4F)c3)C2)CC1` (stereo not drawn) [Example 136, 1-(2′-fluorobiphenyl-3-yl)-4-(4-(1,3-thiazol-2-ylcarbonyl)piperazin-1-yl)pyrrolidin-2-one]: the inhibition at 10 µM is 102%.

In the case of `O=C(c1nccs1)N1CCN(C2CC(=O)N(c3ccccc3)C2)CC1` (stereo not drawn) [Example 160, 1-phenyl-4-(4-(1,3-thiazol-2-ylcarbonyl)piperazin-1-yl)pyrrolidin-2-one], the inhibition at 10 µM was 91%. Still for that read-out and setting: the value for `CNS(=O)(=O)c1ccc(-c2cccc(N3CC(N4CCN(C(=O)c5nccs5)CC4)CC3=O)c2)cc1` (stereo not drawn) [Example 112, N-methyl-3′-(2-oxo-4-(4-(1,3-thiazol-2-ylcarbonyl)piperazin-1-yl)pyrrolidin-1-yl)biphenyl-4-sulfonamide] was 6%; that for `O=C1CCc2ccc(Nc3cccc(N4CC(N5CCN(C(=O)c6nccs6)CC5)CC4=O)c3)cc2N1` (stereo not drawn) [Example 123, 7-((3-(2-oxo-4-(4-(1,3-thiazol-2-ylcarbonyl)piperazin-1-yl)pyrrolidin-1-yl)phenyl)amino)-3,4-dihydroquinolin-2(1H)-one] was 97%. The same measure, in the same setting: with `CC(C)n1nccc1-c1cccc(N2CC(N3CCN(C(=O)c4nccs4)CC3)CC2=O)c1` (stereo not drawn) [Example 171, 1-(3-(1-isopropyl-1H-pyrazol-5-yl)phenyl)-4-(4-(1,3-thiazol-2-ylcarbonyl)piperazin-1-yl)pyrrolidin-2-one] the figure was 99%. Same read-out and setting: the value for `Cc1cccc(-c2cccc(N3CC(N4CCN(C(=O)c5nccs5)CC4)CC3=O)c2)n1` (stereo not drawn) [Example 150, 1-(3-(6-Methylpyridin-2-yl)phenyl)-4-(4-(1,3-thiazol-2-ylcarbonyl)piperazin-1-yl)pyrrolidin-2-one] was 96%; that for `Cn1nc(C(F)(F)F)cc1-c1cccc(N2CC(N3CCN(C(=O)c4nccs4)CC3)CC2=O)c1` (stereo not drawn) [Example 158, 1-(3-(1-methyl-3-(trifluoromethyl)-1H-pyrazol-5-yl)phenyl)-4-(4-(1,3-thiazol-2-ylcarbonyl)piperazin-1-yl)pyrrolidin-2-one] was 99%. For `CC(=O)N(C)c1ccc(Nc2cccc(N3CC(N4CCN(C(=O)c5nccs5)CC4)CC3=O)c2)cc1` (stereo not drawn) [Example 117, N-methyl-N-(4-((3-(2-oxo-4-(4-(1,3-thiazol-2-ylcarbonyl)piperazin-1-yl)pyrrolidin-1-yl)phenyl)amino)phenyl)acetamide], the inhibition at 10 µM was determined as 99%. On the same count and under the same terms, with `COc1ccccc1-c1cccc(N2CC(N3CCN(C(=O)c4nccs4)CC3)CC2=O)c1` (stereo not drawn) [Example 134, 1-(2′-methoxybiphenyl-3-yl)-4-(4-(1,3-thiazol-2-ylcarbonyl)piperazin-1-yl)pyrrolidin-2-one] the figure was 100%. On to `O=C(c1nccs1)N1CCN(C2CC(=O)N(c3cccc(-c4ncccc4C(F)(F)F)c3)C2)CC1` (stereo not drawn) [Example 165, 4-(4-(1,3-thiazol-2-ylcarbonyl)piperazin-1-yl)-1-(3-(3-(trifluoromethyl)pyridin-2-yl)phenyl)pyrrolidin-2-one], for which the inhibition at 10 µM amounted to 100%.

Take `O=C(c1nccs1)N1CCN(C2CC(=O)N(c3ccc4c(ccn4-c4ccc(C(F)(F)F)nc4)c3)C2)CC1` (stereo not drawn) [Example 111, 4-(4-(1,3-thiazol-2-ylcarbonyl)piperazin-1-yl)-1-(1-(6-(trifluoromethyl)pyridin-3-yl)-1H-indol-5-yl)pyrrolidin-2-one]: the inhibition at 10 µM came out at 99%. On the same count and under the same terms, with `N#Cc1ccccc1-c1cccc(N2CC(N3CCN(C(=O)c4nccs4)CC3)CC2=O)c1` (stereo not drawn) [Example 135, 3′-(2-oxo-4-(4-(1,3-thiazol-2-ylcarbonyl)piperazin-1-yl)pyrrolidin-1-yl)biphenyl-2-carbonitrile] the figure was 100%. Same read-out and setting: the value for `O=C(c1nccs1)N1CCN(C2CC(=O)N(c3cccc(OC(F)(F)F)c3)C2)CC1` (stereo not drawn) [Example 148, 4-(4-(1,3-thiazol-2-ylcarbonyl)piperazin-1-yl)-1-(3-(trifluoromethoxy)phenyl)pyrrolidin-2-one] was 95%; that for `O=C(c1nccs1)N1CCN(C2CC(=O)N(c3ccc4c(ccn4-c4cnc(C(F)(F)F)cn4)c3)C2)CC1` (stereo not drawn) [Example 129, 4-(4-(1,3-thiazol-2-ylcarbonyl)piperazin-1-yl)-1-(1-(5-(trifluoromethyl)pyrazin-2-yl)-1H-indol-5-yl)pyrrolidin-2-one] was 101%.

The experiment is the same for the next values; noted with them: 10 μM test compound; substrate 2-arachidonylglycerol, arachidonic acid by RapidFire-mass spectrometry; 10 µM.
Consider `Cc1cccc(-c2cccc(N3CC(N4CCN(C(=O)c5nccs5)CC4)CC3=O)c2)n1` (stereo not drawn) [Example 150, 1-(3-(6-Methylpyridin-2-yl)phenyl)-4-(4-(1,3-thiazol-2-ylcarbonyl)piperazin-1-yl)pyrrolidin-2-one], for which the “% inhibition at 10 μM” value turned out to be 83%.

The experiment is the same for the next values; noted with them: MAGL inhibitory rate, test compound 10 μM, His-hMAGL, substrate 2-arachidonylglycerol, RapidFire-mass spectrometry.
On to `O=C(c1nccs1)N1CCN(C2CC(=O)N(c3cc(-c4ccccc4)ccc3F)C2)CC1` (stereo not drawn) [Example 241, 1-(4-fluorobiphenyl-3-yl)-4-(4-(1,3-thiazol-2-ylcarbonyl)piperazin-1-yl)pyrrolidin-2-one], for which the inhibition at 10 µM is 96%. In the case of `O=C(c1nccs1)N1CCN(C2CC(=O)N(c3cccc(-c4cccc(C(F)(F)F)c4)c3)C2)CC1` (stereo not drawn) [Example 287, 4-(4-(1,3-thiazol-2-ylcarbonyl)piperazin-1-yl)-1-(3′-(trifluoromethyl)biphenyl-3-yl)pyrrolidin-2-one], the inhibition at 10 µM was 103%. Same read-out and setting: with `N#Cc1ccccc1-c1ccc(N2CC(N3CCN(C(=O)c4nccs4)CC3)CC2=O)cc1` (stereo not drawn) [Example 209, 4′-(2-oxo-4-(4-(1,3-thiazol-2-ylcarbonyl)piperazin-1-yl)pyrrolidin-1-yl)biphenyl-2-carbonitrile] the figure was 96%; with `O=C(c1nccs1)N1CCN(C2CC(=O)N(c3ccc(-c4ccccc4C(F)(F)F)cc3)C2)CC1` (stereo not drawn) [Example 215, 4-(4-(1,3-thiazol-2-ylcarbonyl)piperazin-1-yl)-1-(2′-(trifluoromethyl)biphenyl-4-yl)pyrrolidin-2-one], 101%. On the same count and under the same terms, the value for `O=C(c1nccs1)N1CCN(C2CC(=O)N(c3ccc4c(c3)CCN4C(=O)Cc3ccccc3Cl)C2)CC1` (stereo not drawn) [Example 395, 1-(1-((2-chlorophenyl)acetyl)-2,3-dihydro-1H-indol-5-yl)-4-(4-(1,3-thiazol-2-ylcarbonyl)piperazin-1-yl)pyrrolidin-2-one] was 102%; that for `O=C1CC(N2CCN(c3ncccn3)CC2)CN1c1cccc(I)c1` (stereo not drawn) [Example 254, 1-(3-iodophenyl)-4-(4-(pyrimidin-2-yl)piperazin-1-yl)pyrrolidin-2-one] was 95%. The same measure, in the same setting: with `Cc1cc(Cl)ccc1-c1cc(F)cc(N2CC(N3CCN(C(=O)c4nccs4)CC3)CC2=O)c1` (stereo not drawn) [Example 357, 1-(4′-chloro-5-fluoro-2′-methylbiphenyl-3-yl)-4-(4-(1,3-thiazol-2-ylcarbonyl)piperazin-1-yl)pyrrolidin-2-one] the figure was 101%.

Take `O=C(c1nccs1)N1CCN(C2CC(=O)N(c3ccc4c(c3)CCN4C(=O)c3ccccc3)C2)CC1` (stereo not drawn) [Example 396, 1-(1-benzoyl-2,3-dihydro-1H-indol-5-yl)-4-(4-(1,3-thiazol-2-ylcarbonyl)piperazin-1-yl)pyrrolidin-2-one]: the inhibition at 10 µM is 97%. On the same count and under the same terms, the value for `CN1C(=O)Cc2cccc(-c3cccc(N4CC(N5CCN(C(=O)c6nccs6)CC5)CC4=O)c3)c21` (stereo not drawn) [Example 229, 1-methyl-7-(3-(2-oxo-4-(4-(1,3-thiazol-2-ylcarbonyl)piperazin-1-yl)pyrrolidin-1-yl)phenyl)-1,3-dihydro-2H-indol-2-one] was 100%; that for `O=C(c1nccs1)N1CCN(C2CC(=O)N(c3cccc(-c4n[nH]c5ccccc45)c3)C2)CC1` (stereo not drawn) [Example 332, 1-(3-(1H-indazol-3-yl)phenyl)-4-(4-(1,3-thiazol-2-ylcarbonyl)piperazin-1-yl)pyrrolidin-2-one] was 100%. `O=C(c1nccs1)N1CCN(C2CC(=O)N(c3cccc(-c4ccc(F)c(Cl)c4)c3)C2)CC1` (stereo not drawn) [Example 284, 1-(3′-chloro-4′-fluorobiphenyl-3-yl)-4-(4-(1,3-thiazol-2-ylcarbonyl)piperazin-1-yl)pyrrolidin-2-one]: the inhibition at 10 µM was 101%. Same read-out and setting: the value for `CC(=O)Nc1cccc(-c2ccc(N3CC(N4CCN(C(=O)c5nccs5)CC4)CC3=O)cc2)c1` (stereo not drawn) [Example 191, N-(4′-(2-oxo-4-(4-(1,3-thiazol-2-ylcarbonyl)piperazin-1-yl)pyrrolidin-1-yl)biphenyl-3-yl)acetamide] was 96%. The same measure, in the same setting: with `O=C(c1nccs1)N1CCN([C@@H]2CC(=O)N(c3ccc4c(c3)CCN4c3ccnc(C(F)(F)F)n3)C2)CC1` [Example 388, (4R)-4-(4-(1,3-thiazol-2-ylcarbonyl)piperazin-1-yl)-1-(1-(2-(trifluoromethyl)pyrimidin-4-yl)-2,3-dihydro-1H-indol-5-yl)pyrrolidin-2-one] the figure was 99%. Same read-out and setting: with `O=C(c1nccs1)N1CCN(C2CC(=O)N(c3cccc(-c4ccccc4)c3F)C2)CC1` (stereo not drawn) [Example 244, 1-(2-fluorobiphenyl-3-yl)-4-(4-(1,3-thiazol-2-ylcarbonyl)piperazin-1-yl)pyrrolidin-2-one] the figure was 98%.

Staying with this experiment, now noted: MAGL inhibitory rate, test compound 10 μM, His-hMAGL, substrate 2-arachidonylglycerol, RapidFire-mass spectrometry; 10 µM.
Take `O=C1Cc2ccc(-c3cccc(N4CC(N5CCN(C(=O)c6nccs6)CC5)CC4=O)c3)cc2N1` (stereo not drawn) [Example 267, 6-(3-(2-oxo-4-(4-(1,3-thiazol-2-ylcarbonyl)piperazin-1-yl)pyrrolidin-1-yl)phenyl)-1,3-dihydro-2H-indol-2-one(optical isomer)]: the “% inhibition at 10 μM” value is reported as 102%.
